The values below come from the OPERA property sets (Mansouri et al. 2018).

Broadly, the melting point is the temperature of the solid-liquid transition. What is called boiling point is the temperature at which the vapour pressure of the liquid equals the pressure above it.

Each structure is given as a SMILES string.

Details in the first data set: not given
With `Cc1cccc(N2CC(CO)OC2=O)c1` (centres undefined), the melting point was 76 °C.

For the molecule `COC(C)(C)CCCC(C)C/C=C/C(C)=C/C(=O)OC(C)C` (centres undefined), the log10 vapour pressure (mmHg) was -4.63. As for `CCOC(=O)C(C(=O)OCC)C(C(=O)OCC)C(=O)OCC`, the melting point came to 77 °C.

Take `O=C1NCCCN1`: the melting point was determined as 265 °C. Take `O=[N+]([O-])c1ccc2cccnc2c1`: the melting point stood at 132 °C. Take `CCCCCCCCc1ccc(N)cc1`: the boiling point was 310 °C, the melting point stood at 20 °C and the ready biodegradability result is recorded as “readily biodegradable”.

Consider `CCNC(N)=O`, for which the melting point is 92.5 °C.

Molecule `Clc1ccc(-c2cc(Cl)c(Cl)cc2Cl)c(Cl)c1` came in with a log10 Henry constant (atm·m³/mol) of -4.11 and a log10 vapour pressure (mmHg) of -4.66. Take `CCC=CCC(=O)OCC`: the boiling point was 166 °C. As for `CC(C)CCC(C)C`, the boiling point turned out to be 109 °C, the log10 biodegradation half-life (days) worked out at 1.4, the log10 vapour pressure (mmHg) was determined as 1.48 and the melting point is -91 °C. As for `CC(C)(C)c1ccc(C(C)(C)C)cc1`, the boiling point was found to be 238 °C and the melting point came out at 79.5 °C. `CC(C)(C)C(=O)OCOc1ccccc1C(N)=O` registered a melting point of 95 °C. In the case of `CCOC(=O)c1ccc(C)cc1`, the boiling point turned out to be 232 °C and the log10 Koc (L/kg) is 2.59.

Consider `O=C1C=CC(=O)N1c1ccc(Cc2ccc(N3C(=O)C=CC3=O)cc2)cc1`, for which the ready biodegradability entry is recorded as “not readily biodegradable”.

`Oc1cc(O)c2ccccc2c1` yielded a melting point of 124 °C. `COc1ccc(C)c(C)c1` came in with a boiling point of 202 °C. Same read-out and setting: the result for `CCCC(C(=O)OCC)C(=O)OCC` reads 221 °C.

Consider `c1ccc(-c2nnc(-c3ccccn3)nc2-c2ccccc2)cc1`, for which the melting point was 192 °C. With `CCCCCCCCOc1ccccc1`, the boiling point is 285 °C and the melting point came to 8 °C. For the molecule `O=C1c2cccc([N+](=O)[O-])c2C(=O)c2cccc([N+](=O)[O-])c21`, the melting point turned out to be 385 °C.

With `CN(C)C1=NC(=O)C(c2ccccc2)O1` (centres undefined), the melting point came out at 134 °C. The molecule `Brc1cccc(Br)c1Br` registered a melting point of 87.5 °C. In turn, `CC1CCC2CC1C2(C)C` (centres undefined) returned a boiling point of 160 °C.

For the molecule `Cc1cn([C@H]2C[C@H](F)[C@@H](CO)O2)c(=O)[nH]c1=O`, the melting point stood at 177 °C. In turn, `C/C(Cl)=C/C(=O)O` had a boiling point of 195 °C and a melting point of 61 °C. For `CO[Si](C)(C)OC`, the boiling point worked out at 82 °C.

The molecule `COC(=O)OC` registered a boiling point of 90.5 °C, a log10 vapour pressure (mmHg) of 1.74 and a melting point of 3 °C. As to `NN1CCOCC1`, the boiling point is 166 °C. The molecule `CC1=C[C@@H](O)[C@@H]2C[C@H]1C2(C)C` (racemic) yielded a melting point of 65 °C. On to `C[C@]12CCC(=O)C=C1CC[C@@H]1[C@@H]2C(=O)C[C@@]2(C)[C@H]1CC[C@]2(O)[C@H](O)CO`, for which the melting point worked out at 208 °C. Still for that read-out and setting: for `CN1C(=O)CC[C@H]1c1cccnc1` the value was 41 °C. In the case of `CCCCCCCCCCBr`, the boiling point was found to be 241 °C, the log10 vapour pressure (mmHg) was -1.4 and the melting point was -29.2 °C. As for `CCC(CC)C(C)(C)C`, the boiling point was 134 °C, the log10 vapour pressure (mmHg) turned out to be 1.05 and the melting point was -99.3 °C. Take `CCOc1cc(OCC)c(C(=O)CCC(=O)O)cc1OCC`: the melting point was 150 °C. Molecule `CC(=O)Nc1ccccc1C(=O)O` had a melting point of 186 °C. `CCCCCCCCCCF`: the boiling point was found to be 186 °C, the log10 vapour pressure (mmHg) was -0.203 and the melting point was -35 °C. `O=C=Nc1cccc(Cl)c1` registered a log10 vapour pressure (mmHg) of -0.712 and a melting point of -4 °C. In the case of `C[C@H](Oc1ccc(Oc2nc3ccc(Cl)cc3o2)cc1)C(=O)O`, the melting point came to 158 °C.

As to `N#CCCC[Si](Cl)(Cl)Cl`, the boiling point came to 238 °C. `C[Si]1(c2ccccc2)O[Si](C)(c2ccccc2)O[Si](C)(c2ccccc2)O[Si](C)(c2ccccc2)O1` (centres undefined) registered a melting point of 99 °C. As to `Cn1nc2ccc(NC(=O)c3ccccc3)cc2n1`, the melting point worked out at 166 °C. On the same count and under the same terms, the result for `C=C(CC)C(=O)c1ccc(OCC(=O)O)c(Cl)c1Cl` reads 122 °C.

As for `O=C(O)[C@@H]1CCCO1`, the melting point is 21 °C. The molecule `O=C(O)/C=C/c1ccccc1` gave a boiling point of 300 °C, a log10 vapour pressure (mmHg) of -4.49 and a melting point of 133 °C.

`CCCN(CCC)c1c([N+](=O)[O-])cc(C(F)(F)F)cc1[N+](=O)[O-]` had a log10 Henry constant (atm·m³/mol) of -3.99, a log10 Koc (L/kg) of 4.2, a log10 vapour pressure (mmHg) of -4.34 and a melting point of 49 °C. The ready biodegradability entry is “not readily biodegradable”.

`Clc1cc(Cl)cc(-c2ccc(Cl)c(Cl)c2)c1`: the log10 Henry constant (atm·m³/mol) was -4.05.

In the case of `CN(C)C(=O)N[C@@H]1C[C@@H]2C[C@H]1[C@@H]1CCC[C@H]21`, the melting point was determined as 177 °C.

In turn, `Cc1ccc(Oc2ccc(C)cc2)cc1` showed a boiling point of 285 °C and a melting point of 51 °C.

In turn, `COc1cc2c(cc1O)[C@H](Cc1ccc(O)cc1)NCC2` registered a melting point of 220 °C. `C=C(C)CCO` had a boiling point of 132 °C and a log10 vapour pressure (mmHg) of 0.551.

In turn, `CC(=O)Nc1cccc(C)c1` displayed a boiling point of 303 °C, a log10 Koc (L/kg) of 1.45 and a melting point of 65.5 °C.

In the case of `O=C(O)CF`, the boiling point turned out to be 168 °C, the log10 Henry constant (atm·m³/mol) was -7.91 and the melting point came out at 35.2 °C. For the molecule `ClC(Cl)(Cl)c1ccc(C(Cl)(Cl)Cl)cc1`, the melting point is 109 °C.

As for `CCCC(=O)Oc1ccccc1`, the boiling point came to 225 °C. With `O=c1oc2ccccc2c(O)c1C1CCCc2ccccc21` (centres undefined), the log10 vapour pressure (mmHg) is -10.2 and the melting point is 172 °C. `Nc1cccc2cc3ccccc3cc12`: the melting point was found to be 116 °C. For the molecule `CNC(=O)Oc1cc(C)c(N(C)C)c(C)c1`, the log10 Koc (L/kg) is 2.48 and the melting point stood at 85 °C. In turn, `C1CNCCNC1` returned a boiling point of 169 °C and a melting point of 43.5 °C. For `Clc1ccccc1-c1cc(Cl)c(Cl)c(Cl)c1Cl`, the log10 vapour pressure (mmHg) was -4.16. Regarding `Clc1ccccc1-c1nnc(-c2ccccc2Cl)nn1`, the log10 Koc (L/kg) was 4.66, the log10 vapour pressure (mmHg) was -9.01 and the melting point turned out to be 182 °C. The molecule `C#C[C@]1(O)CC[C@H]2[C@@H]3CCc4cc(O)ccc4[C@H]3[C@@H](OC)C[C@@]21C` gave a melting point of 280 °C.

The molecule `O=C1c2ccc(O)cc2C(=O)c2cc(O)ccc21` returned a melting point of 354 °C. `CC(CO)CC(F)(F)F` (centres undefined): the boiling point came to 132 °C.

For `COCc1ccccc1`, the boiling point amounted to 170 °C, the log10 vapour pressure (mmHg) turned out to be 0.22 and the melting point was -52.6 °C. Regarding `Cc1nnc(C)s1`, the boiling point was found to be 202 °C and the melting point came to 65 °C. In the case of `Cc1cc(C)nc(Nc2ccccc2)n1`, the log10 vapour pressure (mmHg) was -4.78 and the melting point was determined as 96.3 °C.

As to `CC1=CC[C@@]23CC1C(C)(C)[C@@H]2CC[C@H]3C`, the melting point worked out at 262 °C.

Molecule `NC(=O)c1ccccc1O` returned a melting point of 142 °C.

`CC(N)CO` (centres undefined) showed a boiling point of 174 °C.

Staying with this data set, now noted: fish.
With `Clc1ccc(-c2cc(Cl)c(Cl)cc2Cl)c(Cl)c1`, the log10 biotransformation half-life (days) is 2.73. As to `CCCN(CCC)c1c([N+](=O)[O-])cc(C(F)(F)F)cc1[N+](=O)[O-]`, the log10 BCF was found to be 3.36 and the log10 biotransformation half-life (days) turned out to be 0.62.

`Brc1cc(Br)c(Oc2c(Br)c(Br)c(Br)c(Br)c2Br)c(Br)c1` gave a log10 BCF of 5.75.

`CNC(=O)Oc1cc(C)c(N(C)C)c(C)c1` came in with a log10 BCF of 1.42.
